Measured values published in US12144886B2, “Perineural administration of resiniferatoxin for treatment of maladaptive pain” (Sorrento Therapeutics, Inc., priority 2018, dated 2024).

Test system: declawed cat with maladaptive pain
Assay: Feline Musculoskeletal Pain Index (FMPI) in a declawed cat after perineural RTX nerve blocks
Assay type: in vivo
Design: key to FMPI Q5 (jumping down) / FMPI Q6 (climbing upstairs) / FMPI Q7 (going down stairs) / FMPI Q8 (playing with/chasing toys) / FMPI Q9 (playing and interacting with other pets) / FMPI Q10 (getting up from a resting position) / FMPI Q11 (lying or sitting down) / FMPI Q12 (stretching) / FMPI Q13 (grooming) / FMPI Q14 (interacting with the owner) / FMPI Q15 (being touched or handled) / FMPI Q16 (eating) / FMPI Q17 (using the litter box) / FMPI Q1 (walking) / FMPI Q2 (running) / FMPI Q3 (jumping up) / FMPI Q4 (jumping up to kitchen counter height): 4 = normal; 3 = near normal; 2 = Moderately worse than normal; 1 = Barely, or with great effort; 0 = not at all
Settings: one cat, 2.5 μg/forelimb perineural
Procedure: Each dose of 5 μg/cat or 2.5 μg/forelimb will be formulated in 1 cc insulin syringes by diluting 0.1 mL: (2.5 μg) of RTX in 0.9 mL sterile saline for injection immediately before use. For treatment, a total of 1.0 mL (2.5 μg) will be injected as nerve blocks, distributed equally (0.25 ml per injection site) over 4 injection sites for each forelimb.
Four point nerve blocks are performed by injection of 0.25 mL RTX each into the 1) superficial branches of the radial nerve, 2) dorsal branch of the ulnar nerve, 3) median nerve and superficial branch of the palmar branch of the ulnar nerve, and 4) deep branch of the palmar branch of the ulnar nerve. The nerve blocks for each forelimb are performed following a published technique for locoregional block of the manus in cats (Enomoto et al. (2016) J. Feline Med. Surg. 18:838-845). To block the superficial branches of the radial nerve (RSbr nn), the limb is positioned with the dorsal aspect facing upwards and the carpus in 180° of extension. A 25 G×⅝-inch needle is inserted subcutaneously (SC) from a point at the center of the limb at the level of the antebrachiocarpal joint. The needle is advanced approximately 10 mm SC at a 10-20° angle to the long axis of the limb with the bevel facing up. Once the tip of the needle is 3-5 mm from the confluence point of the accessory cephalic and cephalic veins, the injection is made (0.25 mL). To block the dorsal branch of the ulnar nerve (UDbr n), the limb is positioned with the lateral aspect facing upwards. A point is located lateral to and at the same level as the accessory carpal bone (ACb), positioned between the ACb and the styloid process of the ulna (SpU). A 25 G×⅝-inch needle is inserted SC distal to proximal, so the tip lies at the midpoint of the groove formed between ACb and the SpU, and then the injection is made (0.25 mL). To block the median nerve (M n) and superficial branch of the palmar branch of the ulnar nerve (UPbrS n), the limb is positioned with the palmar aspect facing upwards. A 25 G×⅝-inch needle is inserted SC at the distal border of the carpal pad and approximately 5 mm lateral to it, perpendicular to the long axis of the metacarpus, with the bevel facing up. The needle is inserted SC until the point is located two-thirds of the distance from the lateral aspect of the limb to the medial aspect. Two-thirds of the injectate volume is deposited at this point and the remaining volume is injected while the needle is withdrawn (0.25 mL). Gentle massage is applied to the injected volume under the skin for 5 seconds. To block the deep branch of the palmar branch of the ulnar nerve (UPbrDp n), the limb is positioned with the palmar aspect facing upwards. A 25 G×⅝-inch needle is inserted almost perpendicular to the ACb in a mediolateral direction such that the needle contacts the medial palmar aspect of the midpoint of the ACb with the bevel facing up. The needle is then redirected dorsally and advanced on the medial side of the ACb 2-3 mm until it penetrates the flexor retinaculum, and then the injection is made (0.25 mL).
The effectiveness of the injection with RTX is assessed at days 3, 7, and 14 using owner videography for qualitative assessment (jumping, manipulation of the limb), and cats will also be evaluated using the Feline Musculoskeletal Pain Index (FMPI) and the Client Specific Outcome Measure (CSOM).
For FMPI, cats are scored for 17 attributes designated Q1-Q17 using a scale of 0-4, where 0=not at all, 1=barely or with great effort, 2=moderately worse than normal, 3=near normal, and 4=normal. The total FMPI score is the sum of scores for each question. Higher totals indicate less impairment with a possible range of (0-68). For analysis, total score or percent possible can be used. […]

SMILES: C=C(C)[C@]12C[C@@H](C)[C@@]34O[C@](Cc5ccccc5)(O[C@@H]1[C@@H]3C=C(COC(=O)Cc1ccc(O)c(OC)c1)C[C@]1(O)C(=O)C(C)=C[C@@H]41)O2 [RTX, resiniferatoxin]
- FMPI % poss (Day 0 (baseline)): 0.69
- FMPI Q1 (walking) (Day 0 (baseline)): 2
- FMPI Q2 (running) (Day 0 (baseline)): 1
- FMPI Q3 (jumping up) (Day 0 (baseline)): 3
- FMPI Q4 (jumping up to kitchen counter height) (Day 0 (baseline)): 0
- FMPI Q5 (jumping down) (Day 0 (baseline)): 2
- FMPI Q6 (climbing upstairs) (Day 0 (baseline)): 4
- FMPI Q7 (going down stairs) (Day 0 (baseline)): 4
- FMPI Q8 (playing with/chasing toys) (Day 0 (baseline)): 3
- FMPI Q9 (playing and interacting with other pets) (Day 0 (baseline)): 2
- FMPI Q10 (getting up from a resting position) (Day 0 (baseline)): 4
- FMPI Q11 (lying or sitting down) (Day 0 (baseline)): 4
- FMPI Q12 (stretching) (Day 0 (baseline)): 3
- FMPI Q13 (grooming) (Day 0 (baseline)): 3
- FMPI Q14 (interacting with the owner) (Day 0 (baseline)): 3
- FMPI Q15 (being touched or handled) (Day 0 (baseline)): 2
- FMPI Q16 (eating) (Day 0 (baseline)): 4
- FMPI Q17 (using the litter box) (Day 0 (baseline)): 3
- FMPI Total score (possible range 0-68) (Day 0 (baseline)): 47
- FMPI % poss (Day 3): 0.71
- FMPI Q1 (walking) (Day 3): 3
- FMPI Q2 (running) (Day 3): 2
- FMPI Q3 (jumping up) (Day 3): 3
- FMPI Q4 (jumping up to kitchen counter height) (Day 3): 2
- FMPI Q5 (jumping down) (Day 3): 3
- FMPI Q6 (climbing upstairs) (Day 3): *3
- FMPI Q7 (going down stairs) (Day 3): *3
- FMPI Q8 (playing with/chasing toys) (Day 3): 3
- FMPI Q9 (playing and interacting with other pets) (Day 3): *1
- FMPI Q10 (getting up from a resting position) (Day 3): 4
- FMPI Q11 (lying or sitting down) (Day 3): 4
- FMPI Q12 (stretching) (Day 3): *2
- FMPI Q13 (grooming) (Day 3): 3
- FMPI Q14 (interacting with the owner) (Day 3): 3
- FMPI Q15 (being touched or handled) (Day 3): 2
- FMPI Q16 (eating) (Day 3): 4
- FMPI Q17 (using the litter box) (Day 3): 3
- FMPI Total score (possible range 0-68) (Day 3): 48
- FMPI % poss (Day 7): 0.81
- FMPI Q1 (walking) (Day 7): 3
- FMPI Q2 (running) (Day 7): 3
- FMPI Q3 (jumping up) (Day 7): 3
- FMPI Q4 (jumping up to kitchen counter height) (Day 7): 3
- FMPI Q5 (jumping down) (Day 7): 3
- FMPI Q6 (climbing upstairs) (Day 7): 4
- FMPI Q7 (going down stairs) (Day 7): 4
- FMPI Q8 (playing with/chasing toys) (Day 7): 3
- FMPI Q9 (playing and interacting with other pets) (Day 7): 2
- FMPI Q10 (getting up from a resting position) (Day 7): 4
- FMPI Q11 (lying or sitting down) (Day 7): 4
- FMPI Q12 (stretching) (Day 7): 3
- FMPI Q13 (grooming) (Day 7): 3
- FMPI Q14 (interacting with the owner) (Day 7): 3
- FMPI Q15 (being touched or handled) (Day 7): 3
- FMPI Q16 (eating) (Day 7): 4
- FMPI Q17 (using the litter box) (Day 7): 3
- FMPI Total score (possible range 0-68) (Day 7): 55
- FMPI % poss (Day 14): 0.84
- FMPI Q1 (walking) (Day 14): 3
- FMPI Q2 (running) (Day 14): 3
- FMPI Q3 (jumping up) (Day 14): 4
- FMPI Q4 (jumping up to kitchen counter height) (Day 14): 3
- FMPI Q5 (jumping down) (Day 14): 3
- FMPI Q6 (climbing upstairs) (Day 14): 4
- FMPI Q7 (going down stairs) (Day 14): 4
- FMPI Q8 (playing with/chasing toys) (Day 14): 3
- FMPI Q9 (playing and interacting with other pets) (Day 14): 3
- FMPI Q10 (getting up from a resting position) (Day 14): 4
- FMPI Q11 (lying or sitting down) (Day 14): 4
- FMPI Q12 (stretching) (Day 14): 3
- FMPI Q13 (grooming) (Day 14): 3
- FMPI Q14 (interacting with the owner) (Day 14): 3
- FMPI Q15 (being touched or handled) (Day 14): 3
- FMPI Q16 (eating) (Day 14): 4
- FMPI Q17 (using the litter box) (Day 14): 3
- FMPI Total score (possible range 0-68) (Day 14): 57
- FMPI % poss (Screening (baseline)): 0.69
- FMPI Q1 (walking) (Screening (baseline)): 2
- FMPI Q2 (running) (Screening (baseline)): 1
- FMPI Q3 (jumping up) (Screening (baseline)): 3
- FMPI Q4 (jumping up to kitchen counter height) (Screening (baseline)): 0
- FMPI Q5 (jumping down) (Screening (baseline)): 2
- FMPI Q6 (climbing upstairs) (Screening (baseline)): 4
- FMPI Q7 (going down stairs) (Screening (baseline)): 4
- FMPI Q8 (playing with/chasing toys) (Screening (baseline)): 3
- FMPI Q9 (playing and interacting with other pets) (Screening (baseline)): 2
- FMPI Q10 (getting up from a resting position) (Screening (baseline)): 4
- FMPI Q11 (lying or sitting down) (Screening (baseline)): 4
- FMPI Q12 (stretching) (Screening (baseline)): 3
- FMPI Q13 (grooming) (Screening (baseline)): 3
- FMPI Q14 (interacting with the owner) (Screening (baseline)): 3
- FMPI Q15 (being touched or handled) (Screening (baseline)): 2
- FMPI Q16 (eating) (Screening (baseline)): 4
- FMPI Q17 (using the litter box) (Screening (baseline)): 3
- FMPI Total score (possible range 0-68) (Screening (baseline)): 47
